The results in this text go back to PMC12395054, “Targeting MDM2 homodimer and heterodimer disruption with DRx-098D in TP53 wild-type and mutant cancer cells” (Molecular Therapy Oncology, 2025).

Molecules are shown by their SMILES.

One assay relates to HCT116 TP53 null cells. Nature of the assay: Cell viability (CellTiter Glo 2.0). The class given is cell-based, human. The settings on record: 24 h, 2% FBS. The method, then:
Immunocytochemistry. HCT116 TP53 null cells were seeded at 0.5 x 10^5 cells per well of a 12-well plate containing a sterilised 0.13-0.17mm glass coverslip in complete DMEM and incubated overnight. Cells were fixed in 4% paraformaldehyde (Sigma) for 15 minutes at room temperature, then permeabilised with 0.1% triton X100 (Sigma) for 4 minutes at room temperature. Cells were then blocked in 10% donkey serum, 1% BSA in PBS for 1 Hr at room temperature. Following blocking, cells were co-incubated in MDM2 (mouse) and MDMX (rabbit) primary antibodies overnight at 4 °C. Subsequently, secondary Alexa Fluor antibodies were co-incubated for a further 1 Hr at room temperature. […]
RTCA xCELLigence. Real-time cellular analysis (RTCA) of A549 cells was measured utilising the label-free cellular growth xCELLigence platform (Roche Applied Science, Agilent Technologies), where-by cellular impedance was leveraged as an indirect indicator of relative cell growth (i.e., cell index; CI). […] Relative growth (Δ growth) of treated A549 cells was assessed as a % difference of vehicle after 72 Hrs post-treatment (i.e., 100% relative cell growth at experiment endpoint).
Cell Viability. For MOLM-13, THP-1 (Fig. 3A), HCT116 TP53 wild-type, HCT116 TP53 null (Fig. 3D), HEK293, and IMR-90 (Fig. 3E) cells, relative cell viability was assessed via CellTiter Glo 2.0 Cell Viability Assay (Promega: […]
(In general: Cellular ATP, detected with luciferase, serves as a proxy for viable cell number.)

Another assay concerns the target T1, MDM2:MDMX heterodimer (Homo sapiens, UniProt Q00987).
T1 construct: PLA of endogenous FL-MDM2 and MDMX in A549; endogenous in cells; host or cells: A549
Nature of the assay: Proximity ligation assay, endogenous FL-MDM2 and MDMX in A549. The class given is cell-based. As to conditions: A549 (TP53 WT), 10% FBS.

T1 sequence (Q00987 whole entry, one chain of several): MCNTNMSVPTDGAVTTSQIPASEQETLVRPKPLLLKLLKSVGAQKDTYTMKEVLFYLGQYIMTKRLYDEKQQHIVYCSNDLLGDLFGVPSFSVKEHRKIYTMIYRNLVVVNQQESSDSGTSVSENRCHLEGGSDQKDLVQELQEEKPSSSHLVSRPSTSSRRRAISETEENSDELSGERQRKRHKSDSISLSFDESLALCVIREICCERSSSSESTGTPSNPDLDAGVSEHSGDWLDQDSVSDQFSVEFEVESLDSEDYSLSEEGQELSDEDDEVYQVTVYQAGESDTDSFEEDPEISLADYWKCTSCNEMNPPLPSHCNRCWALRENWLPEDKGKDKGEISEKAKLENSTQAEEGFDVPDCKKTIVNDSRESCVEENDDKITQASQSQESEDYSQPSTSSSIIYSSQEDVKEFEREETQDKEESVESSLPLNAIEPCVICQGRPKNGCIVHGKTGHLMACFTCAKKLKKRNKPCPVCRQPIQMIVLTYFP

As for `COc1cc(C(=O)O)ccc1NC(=O)[C@@H]1N[C@@H](CC(C)(C)C)[C@](C#N)(c2ccc(Cl)cc2F)[C@H]1c1cccc(Cl)c1F` [Idasanutlin], the “Relative cell viability / anti-proliferative activity (in words)” value in the assay on HCT116 TP53 null cells is “no anti-proliferative activity”. For the same compound, the “Endogenous MDM2 heterodimerization, PLA” value at MDM2:MDMX heterodimer is recorded as “did not affect MDM2 heterodimerization”.
